This note sets out measurements from patent US7501425B1, “Bicyclic pyrimidines and bicyclic 3,4-dihydropyprimidines as inhibitors of cellular proliferation” (Warner Lambert Company, priority 1999, dated 2009).

As a reminder, the melting point is the temperature of the solid-liquid transition.

One series deals with cdc2/cyclinB (Homo sapiens, UniProt P06493). As to the kind of experiment: Cyclin-dependent kinase assay cdc2/cyclinB (cdk1/B). Type of series: biochemical. The procedure:
(§1) Cyclin-Dependent Kinase Assays (cdk2/cyclinE, cdk2/cyclinA, cdc2/cyclinB)
(§2) All components except the ATP were added to the wells, and the plate was placed on a plate mixer for 2 minutes. The reaction was begun by addition of [^32P]ATP, and the plate was incubated at 25° C. for 15 minutes. The reaction was terminated by addition of 0.1 mL of 20% TCA. The plate was kept at 4° C. for at least 1 hour to allow the substrate to precipitate. The wells were then washed five times with 0.2 mL of 10% TCA and ^32P incorporation determined with a beta plate counter (Wallac Inc., Gaithersburg, Md.).

In a further series the target is cdk4/D (Homo sapiens, UniProt P11802). Kind of series: Cyclin-Dependent Kinase 4 (cdk4) enzyme assay, 32P incorporation. It is filed as biochemical. The procedure:
A typical assay, for instance, measures inhibitory activity against the cyclin D dependent kinase 4 enzyme (cdk4/D). […] The cdk4 assay was carried out as follows.
Cyclin-Dependent Kinase 4 (cdk4) Assay
Enzyme assays for IC50 determinations (Tables 1 and 2) and kinetic evaluation were performed in 96 well filter plates (Millipore MADVN6550). The total volume was 0.1 mL containing a final concentration of 20 mM TRIS (tris[hydroxymethyl]aminomethane), at pH 7.4, 50 mM NaCl, 1 mM dithiothreitol, 10 mM MgCl2, 25 μM ATP containing 0.25 μCi of [^32P]ATP, 20 ng of cdk4, 1 μg of retinoblastoma, and appropriate dilutions of a compound of the present invention. All components except the ATP were added to the wells, and the plate was placed on a plate mixer for 2 minutes. The reaction was started by adding [^32P]ATP and the plate was incubated at 25° C. for 15 minutes. The reaction was terminated by addition of 0.1 mL of 20% trichloroacetic acid (TCA). The plate was kept at 4° C. for at least 1 hour to allow the substrate to precipitate. The wells were then washed five times with 0.2 mL of 10% TCA and ^32p incorporation was determined with a beta plate counter (Wallac Inc., Gaithersburg. MD).

A further series has as its target cdk2/cyclinE (Homo sapiens, UniProt P24941). Kind of series: Cyclin-dependent kinase assay cdk2/cyclinE. It is filed as biochemical. As to conditions: for IC50: read-out: cdk2/E IC50; for inhibition at 40 µM: read-out: cdk2/E % Inhibition at 40 μM. Here is the method:
as §1, §2

The next series concerns the target cdk2/cyclinA (Homo sapiens, UniProt P24941). As to the kind of experiment: Cyclin-dependent kinase assay cdk2/cyclinA. Type of series: biochemical. Here is the method: as §1, §2

Chain of cdk4/D (P11802 whole entry, species assumed): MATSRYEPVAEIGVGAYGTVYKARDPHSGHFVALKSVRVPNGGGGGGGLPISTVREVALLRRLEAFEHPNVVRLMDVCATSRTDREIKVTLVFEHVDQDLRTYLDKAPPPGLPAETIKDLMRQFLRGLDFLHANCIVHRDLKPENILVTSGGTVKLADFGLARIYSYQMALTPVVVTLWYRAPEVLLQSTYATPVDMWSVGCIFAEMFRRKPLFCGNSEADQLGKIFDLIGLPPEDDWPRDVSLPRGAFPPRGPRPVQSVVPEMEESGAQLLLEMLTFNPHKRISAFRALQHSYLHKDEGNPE
Chain of cdk4/D (P24385 whole entry partner, species assumed): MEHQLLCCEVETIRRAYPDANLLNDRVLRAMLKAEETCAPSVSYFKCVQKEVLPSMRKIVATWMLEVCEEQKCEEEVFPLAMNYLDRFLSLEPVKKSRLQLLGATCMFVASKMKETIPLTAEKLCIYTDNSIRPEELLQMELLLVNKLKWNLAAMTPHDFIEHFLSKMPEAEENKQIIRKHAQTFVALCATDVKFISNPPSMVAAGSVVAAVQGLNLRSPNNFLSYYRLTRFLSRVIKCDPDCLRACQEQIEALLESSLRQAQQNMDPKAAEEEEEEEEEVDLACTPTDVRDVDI
Chain of cdc2/cyclinB (P06493 whole entry, species assumed): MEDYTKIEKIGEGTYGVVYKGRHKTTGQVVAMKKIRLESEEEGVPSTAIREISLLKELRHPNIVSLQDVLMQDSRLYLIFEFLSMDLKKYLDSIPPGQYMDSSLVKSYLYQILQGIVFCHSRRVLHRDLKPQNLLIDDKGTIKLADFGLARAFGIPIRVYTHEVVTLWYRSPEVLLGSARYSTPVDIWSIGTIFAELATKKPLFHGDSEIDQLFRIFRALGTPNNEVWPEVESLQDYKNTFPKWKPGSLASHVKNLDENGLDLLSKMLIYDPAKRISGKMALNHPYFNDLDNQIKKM
Chain of cdc2/cyclinB (P14635 whole entry partner, species assumed): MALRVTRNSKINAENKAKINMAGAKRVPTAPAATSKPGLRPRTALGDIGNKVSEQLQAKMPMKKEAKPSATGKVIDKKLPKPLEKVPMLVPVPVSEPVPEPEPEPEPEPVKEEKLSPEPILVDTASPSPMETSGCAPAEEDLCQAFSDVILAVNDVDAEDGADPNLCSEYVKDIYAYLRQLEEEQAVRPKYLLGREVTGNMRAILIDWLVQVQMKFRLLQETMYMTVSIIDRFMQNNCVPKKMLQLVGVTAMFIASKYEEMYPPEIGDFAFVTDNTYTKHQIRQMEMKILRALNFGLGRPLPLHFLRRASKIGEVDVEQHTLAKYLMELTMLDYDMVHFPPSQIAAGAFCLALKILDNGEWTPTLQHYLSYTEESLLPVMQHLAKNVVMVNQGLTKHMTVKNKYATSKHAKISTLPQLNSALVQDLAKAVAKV

As to `O=C1NCc2cnc(Nc3ccc(-n4cccn4)cc3)nc2N1C1CCCC1` [Example 12, 1-Cyclopentyl-7-[4-(pyrazol-1-yl)phenylamino]-3,4-dihydro-pyrimido[4,5-d]pyrimidin-2(1H)-one], the IC50 was 12.2 µM at cdc2/cyclinB; 1.8 µM at cdk4/D (25 μM ATP, retinoblastoma substrate); 4.6 µM on cdk2/cyclinE; 1.33 µM on cdk2/cyclinA.

Consider `O=C1NCc2cnc(Nc3ccc(-n4cccc4)cc3)nc2N1C1CCCC1` [Example 14, 1-Cyclopentyl-7-[4-(pyrrol-1-yl)phenylamino]-3,4-dihydro-pyrimido[4,5-d]pyrimidin-2(1H)-one], for which the melting point was > 200 °C (dec.). In addition, the inhibition at 40 µM on cdk2/cyclinE came to 38%.

Take `CC(C)N1C(=O)NCc2cnc(Nc3ccc(N4CCN(C)CC4)cc3)nc21` [Example 22, 1-Isopropyl-7-[4-(4-methylpiperazin-1-yl)phenylamino]-3,4-dihydro-pyrimido[4,5-d]pyrimidin-2(1H)-one]: the melting point is 234 to 237 °C (dec.). At cdc2/cyclinB, this compound came in with an inhibition at 40 µM of 25%. Further, at cdk2/cyclinE, the inhibition at 40 µM is 68%.

Consider `CC(C)N1C(=O)NCc2cnc(Nc3ccc(N4CCC(CCCN5CCOCC5)CC4)cc3)nc21` [Example 26, 1-Isopropyl-7-{4-[4-(3-(morpholin-1-yl)propyl)piperidin-1-yl]phenylamino}-3,4-dihydro-pyrimido[4,5-d]pyrimidin-2(1H)-one], for which the melting point was 203 to 205 °C (dec.). This compound returned an IC50 against cdc2/cyclinB of over 40 µM. On cdk2/cyclinE, the IC50 is 27 µM. The IC50 at cdk2/cyclinA was found to be 6.46 µM.

As to `CN1CCN(c2ccc(Nc3ncc4c(n3)N(C)C(=O)NC4)cc2)CC1.O=C(O)C(F)(F)F` [Example 28, 1-Methyl-7-[4-(4-methylpiperazin-1-yl)phenylamino]-3,4-dihydro-pyrimido[4,5-d]pyrimidin-2(1H)-one; compound with trifluoroacetic acid], the melting point is 234 to 235 °C (dec.). For the same compound, on cdk4/D, the inhibition at 40 µM was 15%. At cdk2/cyclinE, the inhibition at 40 µM was 22%.

Take `CN1C(=O)NCc2cnc(Nc3ccc(N4CCC(O)CC4)cc3)nc21.O=C(O)C(F)(F)F` [Example 29, 7-[4-(4-Hydroxypiperidin-1-yl)phenylamino]-1-methyl-3,4-dihydro-pyrimido[4,5-d]pyrimidin-2(1H)-one; Compound with trifluoroacetic acid]: the melting point was 228 to 229 °C (dec.). The inhibition at 40 µM at cdk2/cyclinE turned out to be 28%.

In the case of `CN1C(=O)NCc2cnc(Nc3ccc(-n4cccn4)cc3)nc21.O=C(O)C(F)(F)F` [Example 31, 1-Methyl-7-[4-(pyrazol-1-yl)phenylamino]-3,4-dihydro-pyrimido[4,5-d]pyrimidin-2(1H)-one; Compound with trifluoroacetic acid], the melting point was 250 to 251 °C (dec.). Further, the inhibition at 40 µM on cdk4/D was 18%. The inhibition at 40 µM at cdk2/cyclinE was 21%.

Turning to `CC(C)n1c(=O)ncc2cnc(Nc3ccc(N4CCN(C)CC4)cc3)nc21` [Example 40, 1-Isopropyl-7-[4-(4-methylpiperazin-1-yl)phenylamino]pyrimido[4,5-d]pyrimidin-2(1H)-one], the melting point was 228 to 229 °C (dec.). At cdc2/cyclinB, this compound came in with an inhibition at 40 µM of 42%.

On to `CC(C)n1c(=O)ncc2cnc(Nc3ccc(N4CCC(N(C)C)CC4)cc3)nc21` [Example 41, 7-{4-[4-(Dimethylamino)piperidin-1-yl]phenylamino}-1-isopropyl-pyrimido[4,5-d]pyrimidin-2(1H)-one], for which the melting point is > 100 °C (dec.).

`CN1CCN(c2ccc(Nc3ncc4cnc(=O)n(C)c4n3)cc2)CC1` [Example 45, 1-Methyl-7-[4-(4-methylpiperazin-1-yl)phenylamino]pyrimido[4,5-d]pyrimidin-2(1H)-one]: the melting point was 259 to 260 °C (dec.). Further, on cdk2/cyclinE, the inhibition at 40 µM is 16%.

For the compound `CN(C)C1CCN(c2ccc(Nc3ncc4cnc(=O)n(C)c4n3)cc2)CC1` [Example 46, 7-{4-[4-(Dimethylamino)piperidin-1-yl]phenylamino}-1-methyl-pyrimido[4,5-d]pyrimidin-2(1H)-one], the melting point is 198 to 202 °C (dec.).

Consider `Cn1c(=O)ncc2cnc(Nc3ccc(-n4cccn4)cc3)nc21` [Example 47, 1-Methyl-7-[4-(pyrazol-1-yl)phenylamino]pyrimido[4,5-d]pyrimidin-2(1H)-one], for which the melting point was > 290 °C (dec.). Besides, the inhibition at 40 µM at cdk2/cyclinE was found to be 41%.

`CCNc1nc(SC)ncc1C=Nc1cc(OC)cc(OC)c1` [Example 48a, {5-[(3,5-Dimethoxy-phenylimino)-methyl]-2-methylsulfanyl-pyrimidin-4-yl}-ethyl-amine] gave a melting point of 100 to 105 °C.

With `COc1cc(OC)cc(N2Cc3cnc([S+](C)[O-])nc3NC2=O)c1` (centres unmarked) [Example 51, 3-(3,5-Dimethoxy-phenyl)-7-methanesulfinyl-3,4-dihydro-pyrimido [4,5-d]pyrimidin-2(1H)-one], the melting point lay in the range of 220 to 222 °C.

In turn, `CCN(CC)CCCCNc1ncc2c(n1)NC(=O)N(c1cc(OC)cc(OC)c1)C2` [Example 52, 7-(4-Diethylamino-butylamino)-3-(3,5-dimethoxy-phenyl)-3,4-dihydro-pyrimido[4,5-d]pyrimidin-2(1H)-one] showed a melting point of 203 to 207 °C.

The compound `CCNc1nc(SC)ncc1C=Nc1cc(OC)cc(OC)c1Cl` [Example 61, {5-[(2-Chloro-3,5-dimethoxy-phenylimino)-methyl]-2-methylsulfanyl-pyrimidin-4-yl}-ethyl-amine] displayed a melting point of 196.5 to 198.5 °C.

In turn, `CCNc1nc(SC)ncc1CNc1cc(OC)cc(OC)c1Cl` [Example 62, {5-[(2-Chloro-3,5-dimethoxy-phenylamino)-methyl]-2-methylsulfanyl-pyrimidin-4-yl}-ethyl-amine] came in with a melting point of 116.5 to 118.5 °C.

`CCN1C(=O)N(c2cc(OC)cc(OC)c2Cl)Cc2cnc(SC)nc21` [Example 63, 3-(2-Chloro-3,5-dimethoxy-phenyl)-1-ethyl-7-methylsulfanyl-3,4-dihydro-pyrimido[4,5-d]pyrimidin-2(1H)-one] had a melting point of 189 to 191 °C.

Compound `COc1cc(OC)cc(N2Cc3cnc(SC)nc3N=C2N)c1` [Example 66, 3-(3,5-Dimethoxy-phenyl)-7-methylsulfanyl-3,4-dihydro-pyrimido [4,5-d]pyrimidin-2-ylamine] returned a melting point of 198 to 204 °C.

Compound `C=CCn1c(=O)c2cnc(-n3ccnc3)nc2n(C(C)C)c1=O` [Example 68, 3-Allyl-7-(imidazol-1-yl)-1-isopropyl-1H-pyrimido [4,5-d]pyrimidine-2,4-dione] registered a melting point of 158 to 160 °C.

Take `COc1ccc(Cn2c(=O)c3cnc(-n4ccnc4)nc3n(C(C)C)c2=O)cc1` [Example 69, 7-(Imidazol-1-yl)-1-isopropyl-3-(4-methoxybenzyl)-1H-pyrimido[4,5-d]pyrimidine-2,4-dione]: the melting point was 148 to 150 °C (dec.).

`C=CCn1c(=O)c2cnc(Nc3ccc(N4CCN(C)CC4)cc3)nc2n(C(C)C)c1=O` [Example 70, 3-Allyl-1-isopropyl-7-[4-(4-methylpiperazin-1-yl)phenylamino]-1H-pyrimido[4,5-d]pyrimidine-2,4-dione]: the melting point lay in the range of 176 to 177 °C. For the same compound, the inhibition at 40 µM at cdk2/cyclinE is 0%.

The compound `COc1ccc(Cn2c(=O)c3cnc(Nc4ccc(N5CCN(C)CC5)cc4)nc3n(C(C)C)c2=O)cc1` [Example 71, 1-Isopropyl-3-(4-methoxybenzyl)-7-[4-(4-methylpiperazin-1-yl)phenylamino]-1H-pyrimido[4,5-d]pyrimidine-2,4-dione] gave a melting point of 215 to 216 °C.

`C=CCn1c(=O)c2cnc(Nc3ccc(OCCN(CC)CC)cc3)nc2n(C(C)C)c1=O` [Example 72, 3-Allyl-7-[4-(2-Diethylaminoethoxy)phenylamino]-1-isopropyl-1H-pyrimido[4,5-d]pyrimidine-2,4-dione] showed a melting point of 90 to 96 °C. For the same compound, the inhibition at 40 µM at cdk2/cyclinE worked out at 0%.

For the compound `CCN(CC)CCOc1ccc(Nc2ncc3c(=O)n(Cc4ccc(OC)cc4)c(=O)n(C(C)C)c3n2)cc1` [Example 73, 7-[4-(2-Diethylaminoethoxy)phenylamino]-1-isopropyl-3-(4-methoxybenzyl)-1H-pyrimido[4,5-d]pyrimidine-2,4-dione], the melting point was in the range of 139 to 141 °C.
